Source: patent US4233296A, “11β-Substituted-Δ^4,9 -estradienes” (Roussel Uclaf, priority 1977, dated 1980)

Experiments:
[1] = target: T1, specific uterine reception of progesterone (progesterone receptor, uterus cytosol) (Oryctolagus cuniculus, UniProt P06186); assay: Progestomimetic activity: hormonal receptor method, displacement of tritiated 17,21-dimethyl-19-nor-Δ4,9-pregnadiene-3,20-dione in uterus cytosol; assay type: binding, rabbit; conditions: for affinity for uterine progesterone receptor compared with progesterone (in words): conclusion from Table VI; for ARL (relative affinity of the test product): progesterone = 100, from CP and CX (concentrations inhibiting by 50% the fixation of tritiated product R), immature rabbit uterus cytosol, 0° C., 2 hours
T1 construct: the uterus was removed and homogenized in a buffered solution; from tissue; host or cells: uterus cytosol (105,000 g supernatant) of estradiol-primed immature rabbits
T1 sequence (P06186 1-930): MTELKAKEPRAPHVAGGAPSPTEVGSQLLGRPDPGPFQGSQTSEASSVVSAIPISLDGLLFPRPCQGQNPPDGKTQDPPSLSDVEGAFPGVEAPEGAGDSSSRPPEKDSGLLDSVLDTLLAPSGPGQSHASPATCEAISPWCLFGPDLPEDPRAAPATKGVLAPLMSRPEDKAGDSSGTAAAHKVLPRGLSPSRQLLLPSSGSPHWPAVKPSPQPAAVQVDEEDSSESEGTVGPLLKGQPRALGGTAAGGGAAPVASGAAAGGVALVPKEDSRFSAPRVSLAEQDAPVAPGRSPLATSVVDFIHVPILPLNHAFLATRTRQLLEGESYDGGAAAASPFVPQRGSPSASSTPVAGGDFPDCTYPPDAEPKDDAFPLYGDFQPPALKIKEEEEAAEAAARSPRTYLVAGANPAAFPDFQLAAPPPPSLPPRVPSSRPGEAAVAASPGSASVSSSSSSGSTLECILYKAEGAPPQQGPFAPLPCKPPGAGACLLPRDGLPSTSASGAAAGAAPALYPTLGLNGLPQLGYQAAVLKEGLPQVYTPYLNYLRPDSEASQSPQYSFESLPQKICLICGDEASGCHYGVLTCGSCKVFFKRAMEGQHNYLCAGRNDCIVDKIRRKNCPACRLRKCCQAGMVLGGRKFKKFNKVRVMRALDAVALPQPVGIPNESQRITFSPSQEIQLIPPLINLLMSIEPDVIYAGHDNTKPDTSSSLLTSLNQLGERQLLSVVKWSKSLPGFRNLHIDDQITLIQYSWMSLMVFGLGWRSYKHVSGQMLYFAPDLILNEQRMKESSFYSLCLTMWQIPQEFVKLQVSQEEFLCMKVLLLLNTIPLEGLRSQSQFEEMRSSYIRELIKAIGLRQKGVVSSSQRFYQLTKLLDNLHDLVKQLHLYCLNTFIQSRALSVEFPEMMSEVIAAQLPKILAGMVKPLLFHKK
Description: The progestomimetic activity was determined for 11β-vinyl-17α-methyl-17β-acetyl-Δ^4,9 -estradiene-3-one [product A], 11β-vinyl-17α-acetoxy-17β-acetyl-Δ^4,9 -estradiene-3-one [product B] and 11β-vinyl-17α-ethynyl-Δ^4,9 -estradiene-17α-ol-3-one [product C] was determined by the hormonal receptor method of Raynaud et al [J. Ster. Biochem., Vol. 6 (1975), p-615-622 and Physiology and Genetics of Reproduction, part A (1975), p. 143-160]. Immature rabbits received subcutaneously 25γ of estradiol and 5 days later, the animals were sacrificed and the uterus was removed and homogenized in a buffered solution of 10 mm of tromethamine, 0.25 M of saccharose and a pH of 7.4 with hydrochloric acid. The homogenate was centrifuged at 105,000 g per hour and the surnageant or cytosol was adjusted to a dilution of 1/50 (weight/volume). […] The radioactivity of the tritiated product R was determined after 2 hours by the technique of adsorption on carbon-dextran (1.25-0.625%). The curves representing the percentage of tritiated product R as a function of the log of the concentration, of cold product R, of progesterone or the test products and the I50 straight line parallel to the axis of the abcisses and ordinates were plotted. [formula] B/T max. is the percentage of tied tritiated product R when the product is not added and B/T min. is the percentage of tied tritiated product R when the maximum amount of cold product R is added. The intersections of these I50 straight lines and the curves permit the determination of the values: CP - concentration of cold progesterone which inhibits by 50% the fixation of the tritiated product R and CX-concentration of test product which inhibits by 50% the fixation of tritiated product R. The relative affinity of the test product (ARL) was determined by the formula [formula] and the results are reported in Table VI.

[2] = target: T2, prostatic androgenic reception of testosterone (androgen receptor, prostate cytosol) (Rattus norvegicus, UniProt P15207); assay: Androgenic activity: hormonal receptor method, displacement of tritiated 17α-methyl-Δ4,9,11-estratriene-17β-ol-3-one in prostate cytosol; assay type: binding
T2 construct: The prostate was recovered from male rats castrated 24 hours earlier and was homogenized; from tissue; host or cells: prostate cytosol (105,000 g supernatant) of male rats castrated 24 hours earlier
T2 sequence (P15207 1-902): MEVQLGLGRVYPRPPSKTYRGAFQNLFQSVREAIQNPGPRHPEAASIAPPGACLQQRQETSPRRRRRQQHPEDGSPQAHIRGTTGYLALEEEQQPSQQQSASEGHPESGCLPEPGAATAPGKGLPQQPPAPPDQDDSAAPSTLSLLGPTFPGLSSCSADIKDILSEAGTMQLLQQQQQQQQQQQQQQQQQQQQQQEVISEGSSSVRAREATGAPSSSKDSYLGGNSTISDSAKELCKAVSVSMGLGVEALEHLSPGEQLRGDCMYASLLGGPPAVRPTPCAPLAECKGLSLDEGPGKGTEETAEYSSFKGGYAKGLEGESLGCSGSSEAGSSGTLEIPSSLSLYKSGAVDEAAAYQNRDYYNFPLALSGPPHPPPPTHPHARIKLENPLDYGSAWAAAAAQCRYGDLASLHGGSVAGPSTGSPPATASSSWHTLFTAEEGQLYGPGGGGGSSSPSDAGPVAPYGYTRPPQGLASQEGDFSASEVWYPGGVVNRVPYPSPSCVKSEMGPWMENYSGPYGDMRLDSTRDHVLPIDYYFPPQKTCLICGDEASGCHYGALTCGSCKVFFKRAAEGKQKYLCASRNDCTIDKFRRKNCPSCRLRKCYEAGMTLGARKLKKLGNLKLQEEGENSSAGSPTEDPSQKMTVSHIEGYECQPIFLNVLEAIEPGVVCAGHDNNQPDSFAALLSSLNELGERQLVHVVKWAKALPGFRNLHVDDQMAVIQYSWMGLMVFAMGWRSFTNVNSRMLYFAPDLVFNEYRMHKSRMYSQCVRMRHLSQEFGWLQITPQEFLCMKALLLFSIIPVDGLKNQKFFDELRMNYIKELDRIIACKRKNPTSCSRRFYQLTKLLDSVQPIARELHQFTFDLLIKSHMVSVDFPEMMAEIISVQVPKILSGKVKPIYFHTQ
Description: This test also used the method of Raynaud et al discussed above. The prostate was recovered from male rats castrated 24 hours earlier and was homogenized in a buffer containing 10 mm of tromethamine and 0.25 M of saccharose and sufficient hydrochloric acid for a pH of 7.4. The homogenate was centrifuged at 105,000 g for one hour and the surnageant liquid or cytosol was adjusted to a dilution of 1/5 (weight/volume).
The radioactivity of the tied tritiated product was determined after 2 hours by absorption technique on carbon-dextran (1.25%-0.625%). […] [formula] were ploted. B/T max. is the percentage of tied tritiated product R when the product is not added and B/T min. is the percentage of tied tritiated product R when the maximum amount of cold product R is added.

| SMILES | affinity for uterine progesterone receptor compared with progesterone (in words) [1] | ARL (relative affinity of the test product) [1] | affinity for prostatic androgen receptor compared with testosterone (in words) ([2]; conclusion from Table VII) | ARL (relative affinity of the test product) ([2]; testosterone = 100, from CT and CX (concentrations inhibiting by 50% the fixation of tritiated product R), castrated rat prostate cytosol, 0° C., 2 hours) |
| --- | --- | --- | --- | --- |
| C=C[C@H]1C[C@@]2(C)[C@@H](CC[C@]2(OC(C)=O)C(C)=O)[C@@H]2CCC3=CC(=O)CCC3=C21 [Product B, 11β-vinyl-17α-acetoxy-17β-acetyl-Δ^4,9-estradiene-3-one] | greater affinity for specific uterine reception of progesterone than progesterone | 120 |  |  |
| C=C(C)[C@H]1C[C@@]2(C)[C@@H](CC[C@]2(C)O)[C@@H]2CCC3=CC(=O)CCC3=C12 [Product D, 11β-isopropenyl-17α-methyl-Δ^4,9-estradiene-17β-ol-3-one] |  |  | affinity on the order of that of testosterone | 80 |
| C=C[C@H]1C[C@@]2(C)[C@@H](CC[C@]2(C)C(C)=O)[C@@H]2CCC3=CC(=O)CCC3=C21 [Product A, 11β-vinyl-17α-methyl-17β-acetyl-Δ^4,9-estradiene-3-one] | greater affinity for specific uterine reception of progesterone than progesterone | 160 |  |  |
| C#C[C@]1(O)CC[C@H]2[C@@H]3CCC4=CC(=O)CCC4=C3[C@@H](C=C)C[C@@]21C [Product C, 11β-vinyl-17α-ethynyl-Δ^4,9-estradiene-17β-ol-3-one] | greater affinity for specific uterine reception of progesterone than progesterone | 150 |  |  |
